In US8530507B2, “Use of levo-ornidazole in the preparation of anti-anaerobic bacteria infection drugs” (priority 2005, dated 2013):

Columns and labels:
Kunming mice [1] = assay: Acute toxicology test, LD50 in mice (Bliss method); format: in vivo; conditions: for Number of dead animals: 10 animals
Experimental: Kunming mice, half males and half females, with body weights of 18˜22 g, were administered the testing drug solution by injection 8 hours after fasting. The death status of animals was consecutively observed for 14 days after administration.

mice [2] = assay: Hypnotic effect of intravenous injection in mice (righting reflex); format: in vivo; conditions: both, mouse, in vivo, iv, 160 mg/kg, 30 min
Experimental: White mice, half males and half females, fasted for eight hours. The disappearance of righting reflex in mice was observed. The number of animals who lost their righting reflex was recorded in 30 minutes after drug administration.

Beagle dogs = conditions: dog, in vivo, iv, 200 mg/kg
Text: 2. Toxicity Test in Beagle Dogs (Non-Rodent) After Intravenous Administration of L-ornidazole for Two Weeks
Beagle dogs, 4 dogs in each group with half females and half males, were divided into L-, D-, and racemic ornidazole groups.

mice [3] = assay: Effects on spontaneous activities in mice; format: in vivo; conditions: for spontaneous activity compared with the vehicle control group: recorded at 0.5, 1, 2, 3 and 4 hours
Experimental: Chlorpromazine was administered at dose of […] in the positive control group, and the same volume of propylene glycol containing 0.9% sodium chloride injection was administered in the vehicle control group. Spontaneous activity was recorded at 0.5, 1, 2, 3 and 4 hours after drug administration. The injection volume was 0.2 ml/10 g and the administration rate was 0.2 ml/10 sec.

Kunming mice [4] = assay: Acute toxicology test, LD50 in mice (Bliss method); format: in vivo; conditions: oral gavage; for Number of dead animals: 10 animals
[5] = test system: peptostreptococcus (including Escherichia coli); assay: Abdominal infection model in mice, ED50; format: in vivo, Kunming white mice; conditions: death observed 7 days
Experimental: (§1) Kunming white mice, body weight of 20±2 g, half males and half females. 10 mice in each dose group with half females and half males. Abdominal infection models were prepared with the entire animal (mice) and treatments were conducted with the testing drugs. The therapeutical efficacy was observed and expressed as ED50 (half effective dose). Drugs were administered twice by oral gavage (administered immediately after infection for one and 6 hours after infection for the other one). The death status of animals was observed consecutively for seven days after infection and being treated.

[6] = test system: bacteroides (including Escherichia coli) infection; assay: Abdominal infection model in mice, ED50; format: in vivo, Kunming white mice; conditions: death observed 7 days
Experimental: as §1

[7] = In vivo pharmacokinetics in Beagle dogs; conditions: both sexes, dog, beagle dogs, individual intravenous dose 13 mg/kg, plasma
Experimental: The clinical dose of ornidazole is 500 mg for human. By calculating, based on body surface area, the pharmacokinetic experimental dose in Beagle dogs was 13 mg/kg in vivo. Six adult beagle dogs (half males and half females, body weight of 9˜11.5 kg) were randomly divided into three groups. According to crossover design, intravenous injection of L-, D-, and racemic ornidazole were administered in turn to each dog every other week (with one week washout period in between). 2 ml of blood was collected from the vein located at the forelimb of the dogs before drug administration and 0.083, 0.5, 1.0, 2.0, 4.0, 6.0, 8.0, 12.0, 16.0, 24.0 hours after drug administration, which was then placed in the heparinized tube, followed by centrifugation to obtain the plasma. Plasma concentration of drug was determined by HPLC. Pharmacokinetics parameters were estimated using the non-compartmental models. The corresponding pharmacokinetics parameters were obtained by BAPP2.0 using the data of plasma concentration of blood with time obtained above.

mice [8] = assay: Effect on the hypnotic effect induced by sodium thiopental in mice; conditions: 40 mg/kg sodium thiopental i.p. 30 minutes later
Experimental: The same volume of 0.9% sodium chloride injection containing propylene glycol was administered in the vehicle control group. 30 minute after drug administration, 40 mg/kg of sodium thiopental was administered to mice by intraperitoneal injection. The time for the loss of righting reflex and the time for the recovery were recorded. The injection volume was 0.2 ml/10 g, the administration rate was 0.2 ml/10 sec.

mice [9] = assay: Effect on the coordination of balancing in mice; format: in vivo; conditions: intravenous injection
Experimental: Experiments were conducted in 9 administration groups, L-, D- and racemic ornidazole were administered to them at doses of 40, 80 and 160 mg/kg. Positive control group received chlorpromazine at a dose of 3 mg/kg.

## Cc1ncc([N+](=O)[O-])n1CC(O)CCl (racemic) [racemic ornidazole, ornidazole]
Kunming mice [1]; intraperitoneal, 887.4 mg/kg
  Death rate: 0%
  Probability units (Y): 3.39
  Number of dead animals: 0
Kunming mice [1]; intraperitoneal, 1044 mg/kg
  Death rate: 30%
  Probability units (Y): 4.42
  Number of dead animals: 3
Kunming mice [1]; intraperitoneal, 1228 mg/kg
  Death rate: 80%
  Probability units (Y): 5.46
  Number of dead animals: 8
Kunming mice [1]; intraperitoneal, 1445 mg/kg
  Death rate: 100%
  Probability units (Y): 6.49
  Number of dead animals: 10
Kunming mice [1]; intraperitoneal, 1700 mg/kg
  Death rate: 100%
  Probability units (Y): 7.52
  Number of dead animals: 10
Kunming mice [1]; intravenous, 243 mg/kg
  Death rate: 0%
  Probability units (Y): 3.22
  Number of dead animals: 0
Kunming mice [1]; intravenous, 270 mg/kg
  Death rate: 30%
  Probability units (Y): 4.06
  Number of dead animals: 3
Kunming mice [1]; intravenous, 300 mg/kg
  Death rate: 50%
  Probability units (Y): 4.90
  Number of dead animals: 5
Kunming mice [1]; intravenous, 333 mg/kg
  Death rate: 50%
  Probability units (Y): 5.73
  Number of dead animals: 5
Kunming mice [1]; intravenous, 370 mg/kg
  Death rate: 100%
  Probability units (Y): 6.57
  Number of dead animals: 10
Kunming mice [1]; oral gavage, 655.4 mg/kg
  Death rate: 0%
  Probability units (Y): 3.20
Kunming mice [1]; oral gavage, 819.2 mg/kg
  Death rate: 20%
  Probability units (Y): 4.20
Kunming mice [1]; oral gavage, 1024 mg/kg
  Death rate: 70%
  Probability units (Y): 5.19
Kunming mice [1]; oral gavage, 1280 mg/kg
  Probability units (Y): 6.19
Kunming mice [1]; oral gavage, 1600 mg/kg
  Death rate: 100%
  Number of dead animals: 10
Mice [2]
  number of mice with loss in righting reflex: 6 mice
Beagle dogs
  number of Purkinje cells in cerebellum (histological examination): No reduction in the number of Purkinje cells and cellular degeneration was observed
Mice [3]; 40 mg/kg intravenous
  recovery of spontaneous activity: gradually become normal after 2 hours
  spontaneous activity compared with the vehicle control group: reduced significantly 1 hour after administration
Mice [3]; 80 mg/kg intravenous
  recovery of spontaneous activity: gradually become normal after 3 hours
  spontaneous activity compared with the vehicle control group: reduced significantly at 0.5, 1 and 2 hours
Mice [3]; 160 mg/kg intravenous
  recovery of spontaneous activity: gradually become normal after 4 hours
  spontaneous activity compared with the vehicle control group: reduced significantly at 0.5, 1, 2 and 3 hours
Kunming mice [4]; 655.4 mg/kg
  Number of dead animals: 0
Kunming mice [4]; 819.2 mg/kg
  Number of dead animals: 2
Kunming mice [4]; 1024 mg/kg
  Number of dead animals: 7
Kunming mice [4]; 1280 mg/kg
  Death rate: 90%
  Number of dead animals: 9
Kunming mice [4]; 1600 mg/kg
  Probability units (Y): 7.19
[5]; Peptostreptococcus, oral gavage twice (immediately and 6 hours after infection), read-out: ED50 (half effective dose)
  ED50: 49.1 mg/kg
[5]; oral gavage twice
  95% CI of ED50: 61.1˜39.4 mg/kg
[6]; Bacteroides, oral gavage twice (immediately and 6 hours after infection), read-out: ED50 (half effective dose)
  ED50: 39.9 mg/kg
[6]; oral gavage twice
  95% CI of ED50: 51.9˜30.7 mg/kg
[7]; HPLC, non-compartmental, read-out: t1/2 (half life) (converted)
  half-life: 5.55 ± 3.12 h
[7]; read-out: AUC0-t (area under curve)
  AUC(0-t): 76700 ± 10800 ng·h/mL
[7]; read-out: Cl (clearance) (converted)
  clearance: 23.8 mL/min
[7]; read-out: MRT (mean retention time of drugs)
  MRT: 8.01 ± 3.42 h
[7]; read-out: Vβ (elimination volume of distribution)
  Vd: 11.2 ± 3.96 L
Mice [8]; 40 mg/kg intravenous
  sleep latency induced by sodium thiopental, compared with the vehicle control group: no significant reduction
Mice [8]; 80 mg/kg intravenous
  sleep latency induced by sodium thiopental, compared with the vehicle control group: significantly reduced
Mice [9]; 160 mg/kg
  effect on the coordination and balance (number of falling animals): significant effect
Mice [9]; doses of 40 and 80 mg/kg
  effect on the coordination and balance, compared with the vehicle control group: no significant effect
